Test results published in patent US12071424B2, “IRE1 small molecule inhibitors” (Cornell University, priority 2017, dated 2024).

Experiments:
IRE1a [1] = biological target: T1, IRE1a (Homo sapiens, UniProt O75460); experiment: In vitro FRET assay (IRE1a cleavage of XBP1 RNA probe); format: biochemical; conditions: 2 nM SignalChem IRE1a, tested as Formic Acid Salt (37: HCl Salt)
T1 construct: purchased SignalChem
Method: In vitro FRET assay was performed to evaluate the ability of select compounds to inhibit IRE1, the results of which are summarized in Table 3. To perform the in vitro FRET assay, 1× complete assay buffer (CAB: […], 50 mM sodium citrate pH 7.15, 1 mM magnesium acetate, 0.02% tween 20) was used to SignalChem IRE1a protein to a final concentration of 2 nM. Selected compounds were serially diluted with DMSO in a non-binding black 384-well plate for a total of 15 ul in each well. 2 ul of the serially diluted compound or DMSO control were then added to new wells containing 98 ul of 1× CAB, for a total volume of 100 ul, 10 ul of which were then transferred to wells of a new plate. 5 ul of the diluted IRE1a was then added to each well. 5 ul of a […] XBP1 RNA probe was then added to each well. Fluorescence was then read over 30 minutes in kinetic mode (485/515 nm).
Two RNA probes were used, XBP1 wildtype (SEQ ID NO: 2) which is able to be spliced by active IRE1a or XBP1 mutant (SEQ ID NO: 3) which is unable to be spliced. Each probe contained a 5′ 6-FAM modification and a 3′ IOWA black FQ modification. […]

IRE1a [2] = experiment: IRE1a Endoribonuclease Nanoluciferase Assay (XBP1 luciferase reporter in 293T cells); format: cell-based, human; conditions: ER stressor, tested as Formic Acid Salt (37: HCl Salt)
Method: Compounds disclosed herein assessed for disruption of IRE1 signaling using a IRE1a Endoribonuclease Nanoluciferase Assay. Briefly, 25×10^5 293T cells were seeded in a 10 cm^2 tissue culture plate. About 24 hours later, the cells were transfected with Effectene. In a 15 mL tube, the following was added: 2 ug XBP1 luciferase reporter plasmid (PGK-Luc2-P2A-XBP1u-Nanoluciferase-Pest); 300 ul EC buffer; and 16 ul Enhancer, followed by incubation at room temp for 5 minutes. Next, 60 ul Effectene (Qiagen 301427) was added, followed by incubation at room temperature for 10 minutes. 2.6 mL cDMEM media was added. Old media was aspirated from the cells, followed by addition of 7 mL fresh media. Full transfection mixture was added dropwise to cells. Cells were incubated for 6 hours, followed by trypsinization, centrifugation and resuspension in 11 mL fresh cDMEM media. 100 uL of cells were plated per a well in a 96 well plate. A day later, ER stressors of choice +/−inhibitors were added. To harvest, media was aspirated from cells completely, then 50 uL 1× passive lysis buffer (Promega: E1941) was added per well and put on shaker (300 rpm) for 30 minutes at room temperature. Cells were centrifuged, and 15 uL sample per well was added to a new, opaque white 384 well plate (Corning 3570). 15 uL OneGlo (nanoluciferase kit, Promega N1630) was added. Plates were spun down, placed on shaker (300 rpm) for 10 minutes. Plates were read on luminometer, 1000 ms integration time per well. 15 uL Stop an Glo (nanoluciferase kit) was added. Plates were spun down, placed on shaker (300 rpm) for 10 minutes. Plates were read on luminometer, 1000 ms second integration time per well. Recordings are provided below in Table 4.

T1 sequence (O75460 19-977): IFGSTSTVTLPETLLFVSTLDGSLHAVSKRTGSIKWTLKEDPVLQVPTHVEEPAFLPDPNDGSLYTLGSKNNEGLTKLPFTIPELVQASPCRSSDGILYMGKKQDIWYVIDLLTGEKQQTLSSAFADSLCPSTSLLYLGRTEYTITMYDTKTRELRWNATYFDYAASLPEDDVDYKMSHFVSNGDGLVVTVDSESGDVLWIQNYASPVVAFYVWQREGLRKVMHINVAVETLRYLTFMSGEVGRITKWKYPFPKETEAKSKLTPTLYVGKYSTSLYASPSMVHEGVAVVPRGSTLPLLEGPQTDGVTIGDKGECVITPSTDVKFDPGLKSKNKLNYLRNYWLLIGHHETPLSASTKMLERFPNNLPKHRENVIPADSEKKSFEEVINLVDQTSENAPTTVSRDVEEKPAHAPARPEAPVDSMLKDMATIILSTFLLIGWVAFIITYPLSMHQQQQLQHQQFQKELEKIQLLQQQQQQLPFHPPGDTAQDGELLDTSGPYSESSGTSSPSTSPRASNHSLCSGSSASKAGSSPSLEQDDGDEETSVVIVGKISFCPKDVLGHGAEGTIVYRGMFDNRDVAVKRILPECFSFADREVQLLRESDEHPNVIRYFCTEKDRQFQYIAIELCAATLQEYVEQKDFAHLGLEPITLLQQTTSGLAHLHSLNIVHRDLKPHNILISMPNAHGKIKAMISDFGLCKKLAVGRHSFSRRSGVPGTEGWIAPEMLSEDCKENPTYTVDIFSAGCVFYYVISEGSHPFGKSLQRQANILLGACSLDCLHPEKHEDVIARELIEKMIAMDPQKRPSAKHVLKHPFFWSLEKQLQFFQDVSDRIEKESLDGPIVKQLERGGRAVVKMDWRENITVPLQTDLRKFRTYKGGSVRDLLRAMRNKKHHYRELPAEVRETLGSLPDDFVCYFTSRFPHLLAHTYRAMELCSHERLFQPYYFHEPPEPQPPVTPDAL

Row | SMILES | IC50 (IRE1a [1]) [nM] | EC50 (IRE1a [2]; Homo sapiens, HEK-293T) [nM] | EC50 (IRE1a [2]) [nM]
1 | CCc1nc(NS(=O)(=O)c2ccccc2Cl)ccc1-c1cc(CC)c2nc(N[C@H]3CC[C@H](N(C)C)CC3)ncc2c1 [Compound 117, 2-chloro-N-(5-(2-(((1r,4r)-4-(dimethylamino)cyclohexyl)amino)-8-ethylquinazolin-6-yl)-6-ethylpyridin-2-yl)benzenesulfonamide] | ≤ 5 | ≤ 5 | 
2 | N[C@H]1CCC[C@@H](Nc2ncc3cc(-c4ccc(NS(=O)(=O)c5ccccc5Cl)c(F)c4)ccc3n2)C1 [Compound 75, N-(4-(2-(((1R,3S)-3-aminocyclohexyl)amino)quinazolin-6-yl)-2-fluorophenyl)-2-chlorobenzene-sulfonamide] | ≤ 5 | 100 to 10000 | 
3 | N[C@H]1CC[C@H](Nc2ncc3cc(-c4cnc(NS(=O)(=O)c5ccccc5Cl)c(F)c4)ccc3n2)CC1 [Compound 54, N-(5-(2-(((1r,4r)-4-aminocyclohexyl)amino)quinazolin-6-yl)-3-fluoropyridin-2-yl)-2-chlorobenzene-sulfonamide] | ≤ 5 | 5 to 50 | 
4 | CCc1cc(-c2ccc(NS(=O)(=O)c3ccccc3Cl)c(F)c2)cc2cnc(N[C@H]3CC[C@H](N4CCCC4)CC3)nc12 [Compound 88, 2-chloro-N-(4-(8-ethyl-2-(((1r,4r)-4-(pyrrolidin-1-yl)cyclohexyl)amino)quinazolin-6-yl)-2-fluorophenyl) benzenesulfon-amide] | ≤ 5 | ≤ 5 | 
5 | CCc1cc(-c2ccc(NS(=O)(=O)c3cccc(F)c3Cl)nc2C)cc2cnc(N[C@H]3CC[C@H](N(C)C)CC3)nc12 [Compound 158, 2-chloro-N-(5-(2-(((1r,4r)-4-(dimethylamino)cyclohexyl)amino)-8-ethylquinazolin-6-yl)-6-methylpyridin-2-yl)-3-fluorobenzenesulfonamide] | ≤ 5 | ≤ 5 | 
6 | CCc1cc(-c2ccc(NS(=O)(=O)c3ccccc3Cl)c(F)c2)cc2cnc(N[C@H]3CC[C@H](NC(C)=O)CC3)nc12 [Compound 59] | 5 to 50 | 50 to 100 | 
7 | NC12CCC(Nc3ncc4cc(-c5ccc(NS(=O)(=O)c6ccccc6Cl)c(F)c5)ccc4n3)(CC1)CC2 [Compound 81, N-(4-(2-((4-aminobicyclo[2.2.2]octan-1-yl)amino)quinazolin-6-yl)-2 fluorophenyl)-2-chlorobenzene-sulfonamide] | ≤ 5 | ≤ 5 | 
8 | CN[C@H]1CC[C@H](Nc2ncc3cc(-c4cc(F)c(NS(=O)(=O)c5ccccc5Cl)nc4OC)ccc3n2)CC1 [Compound 150, 2-chloro-N-(3-fluoro-6-methoxy-5-(2-(((1r,4r)-4-(methylamino)cyclohexyl)amino)quinazolin-6-yl)pyridin-2-yl)benzenesulfonamide] | ≤ 5 | 5 to 50 | 
9 | CCc1cc(-c2ccc(NS(=O)(=O)c3ccccc3Cl)nc2OC)cc2cnc(N[C@H]3CC[C@@H](N(C)C)CC3)nc12 [Compound 141, 2-chloro-N-(5-(2-(((1s,4s)-4-(dimethylamino)cyclohexyl)amino)-8-ethylquinazolin-6-yl)-6-methoxypyridin-2-yl)benzenesulfonamide] | ≤ 5 | 100 to 10000 | 
10 | CCc1cc(-c2nnc(NS(=O)(=O)c3ccccc3Cl)cc2OC)cc2cnc(N[C@H]3CC[C@H](N(C)C)CC3)nc12 [Compound 159, 2-chloro-N-(6-(2-(((1r,4r)-4-(dimethylamino)cyclohexyl)amino)-8-ethylquinazolin-6-yl)-5-methoxypyridazin-3-yl)benzenesulfonamide] | ≤ 5 | 5 to 50 | 
11 | CCc1cc(-c2ncc(NS(=O)(=O)c3ccccc3Cl)nc2OC)cc2cnc(N[C@H]3CC[C@H](N(C)C)CC3)nc12 [Compound 157, 2-chloro-N-(5-(2-(((1r,4r)-4-(dimethylamino)cyclohexyl)amino)-8-ethylquinazolin-6-yl)-6-methoxypyrazin-2-yl)benzenesulfonamide] | ≤ 5 | ≤ 5 | 
12 | CCc1cc(-c2ccc(NS(=O)(=O)c3ccccc3Cl)c(F)c2)cc2cnc(N[C@H]3CC4C[C@@H](N)CC4C3)nc12 (stereo partly drawn) [Compound 84] | ≤ 5 | 5 to 50 | 
13 | N[C@@H]1CC[C@@H](Nc2ncc3cc(-c4ccc(NS(=O)(=O)c5ccccc5Cl)c(F)c4)ccc3n2)C1 [Compound 77, N-(4-(2-(((1R,3R)-3-aminocyclopentyl)amino)quinazolin-6-yl)-2-fluorophenyl)-2-chlorobenzene-sulfonamide] | ≤ 5 | 5 to 50 | 
14 | CCc1cc(-c2ccc(NS(=O)(=O)c3ccccc3C)nc2OC)cc2cnc(N[C@H]3CC[C@H](NC)CC3)nc12 [Compound 118, N-(5-(8-ethyl-2-(((1r,4r)-4-(methylamino)cyclohexyl)amino)quinazolin-6-yl)-6-methoxypyridin-2-yl)-2-methylbenzenesulfonamide] | ≤ 5 | ≤ 5 | 
15 | CCc1cc(-c2cc(F)c(NS(=O)(=O)c3ccccc3Cl)nc2OC)cc2cnc(N[C@H]3CC[C@H](N(C)C)CC3)nc12 [Compound 128, 2-chloro-N-(5-(2-(((1r,4r)-4-(dimethylamino)cyclohexyl)amino)-8-ethylquinazolin-6-yl)-3-fluoro-6-methoxypyridin-2-yl)benzenesulfonamide] | ≤ 5 | ≤ 5 | 
16 | CCc1cc(-c2ccc(NS(=O)(=O)c3ccccc3Cl)c(F)c2)cc2cnc(N[C@H]3CC4C[C@H](N)CC4C3)nc12 (stereo partly drawn) [Compound 82, N-(4-(2-((4-5-aminooctahydro-pentalen-2-yl)amino)-8-ethylquinazolin-6-yl)-2-fluorophenyl)-2-chlorobenzene-sulfonamide] | ≤ 5 |  | 5 to 50
17 | O=S(=O)(Nc1ccc(-c2ccc3nc(N[C@H]4CCCNC4)ncc3c2)cc1F)c1ccccc1Cl [Compound 76, (S)-2-chloro-N-(2-fluoro-4-(2-(piperdin-3-ylamino)quinazolin-6-yl)phenyl) benzenesulfon-amide] | ≤ 5 | 5 to 50 | 
18 | CCc1cc(-c2ccc(NS(=O)(=O)c3ccccc3Cl)c(F)c2)cc2cnc(NC34CCC(N)(CC3)CC4)nc12 [Compound 87, N-(4-(2-((4-aminobicyclo[2.2.2]octan-1-yl)amino)-8-ethylquinazolin-6-yl)-2-fluorophenyl)-2-chlorobenzene-sulfonamide] | ≤ 5 | ≤ 5 | 
19 | CCc1cc(-c2ccc(NS(=O)(=O)c3cccc(Cl)c3Cl)nc2C)cc2cnc(N[C@H]3CC[C@H](N(C)C)CC3)nc12 [Compound 152, 2,3-dichloro-N-(5-(2-(((1r,4r)-4-(dimethylamino)cyclohexyl)amino)-8-ethylquinazolin-6-yl)-6-methylpyridin-2-yl)benzenesulfonamide] | ≤ 5 | ≤ 5 | 
20 | CCc1cc(-c2cc(F)c(NS(=O)(=O)c3ccccc3Cl)nc2OC)cc2cnc(N[C@H]3CC[C@H](NC)CC3)nc12 [Compound 127, 2-chloro-N-(5-(8-ethyl-2-(((1r,4r)-4-(methylamino)cyclohexyl)amino)quinazolin-6-yl)-3-fluoro-6-methoxypyridin-2-yl)benzenesulfonamide] | ≤ 5 | ≤ 5 | 
21 | COc1nc(NS(=O)(=O)c2ccccc2Cl)ccc1-c1cc(F)c2nc(N[C@H]3CC[C@H](N(C)C)CC3)ncc2c1 [Compound 148, 2-chloro-N-(5-(2-(((1r,4r)-4-(dimethylamino)cyclohexyl)amino)-8-fluoroquinazolin-6-yl)-6-methoxypyridin-2-yl)benzenesulfonamide] | ≤ 5 | ≤ 5 | 
